Legend:
[1] = biological target: T1, SOS1 catalytic domain (residues 564-1049) (Homo sapiens, UniProt Q07889); assay: Potency Assay: binding affinity to SOS1 using Surface Plasmon Resonance (SPR); parameters: SOS1 catalytic domain (residues 564-1049) immobilized on a sensor chip; settings: immobilized SOS1 catalytic domain (residues 564-1049), read-out: SOS1 SPR Equilibrium Kd
T1 sequence (Q07889 564-1049): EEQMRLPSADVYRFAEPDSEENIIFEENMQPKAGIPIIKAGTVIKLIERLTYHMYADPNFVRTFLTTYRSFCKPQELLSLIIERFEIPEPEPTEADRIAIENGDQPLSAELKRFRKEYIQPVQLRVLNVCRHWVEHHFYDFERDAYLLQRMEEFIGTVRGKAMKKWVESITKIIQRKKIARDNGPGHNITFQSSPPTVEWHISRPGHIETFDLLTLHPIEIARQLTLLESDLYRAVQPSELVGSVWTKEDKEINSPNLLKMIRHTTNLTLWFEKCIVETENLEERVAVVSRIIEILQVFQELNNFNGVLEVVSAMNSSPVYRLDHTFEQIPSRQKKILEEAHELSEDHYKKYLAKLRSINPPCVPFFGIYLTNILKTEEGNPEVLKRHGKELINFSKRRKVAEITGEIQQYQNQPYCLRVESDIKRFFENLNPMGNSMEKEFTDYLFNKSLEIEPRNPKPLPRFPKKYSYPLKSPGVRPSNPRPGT
Procedure: Data was reported as equilibrium dissociation constant (Kd) values.
Using a GE Biacore 8K SPR instrument, avi-tagged SOS1 catalytic domain protein was immobilized to a level of approximately 6000 response units (RU) on a streptavidin-coated SPR sensor chip in assay buffer containing 0.01 M HEPES, 0.15 M NaCl and 0.05% v/v Surfactant P20. […] For each test compound, a separate 0 μM sample was generated for use during subsequent double reference subtraction. Serially for each test compound, individual dilution samples were flowed over the immobilized SOS1 protein at a flow rate of 50 μL/minute to monitor the association with SOS1. Dissociation of bound test compound from the SOS1 protein was immediately monitored by flowing assay buffer over the sensor surface and monitoring the decrease in binding signal back to the baseline level seen in the absence of compound. This was repeated for all compound dilutions in each series. The binding level response for each test compound concentration was noted immediately prior to the end of the association phase, and a secondary plot generated showing binding response level versus test compound concentration generated for each compound dilution series.

[2] = biological target: T1, SOS1 catalytic domain (residues 564-1049); assay: Mode of Action Assay: inhibition of SOS1 nucleotide exchange activity (SOS1 TR-FRET IC50 Assay)
Procedure: The purpose of this assay was to characterize the inhibitory activity of compounds on SOS1 nucleotide exchange of KRAS. Data was reported as IC50 values based on the TR-FRET signal.
Note—the following protocol describes a procedure for monitoring the inhibition of SOS1 nucleotide exchange activity of wild-type KRAS in response to a compound of the invention.
The SOS1/compound mixture was incubated at room temperature with constant mixing on an orbital shaker for 20 minutes to allow the reaction to reach equilibrium. […] This mixture was prepared immediately before addition to the SOS1/compound mixture to prevent intrinsic nucleotide exchange. Then 5 μL of the pre-incubated SOS1/compound mixture and 7.5 μL of the KRAS mixture were added sequentially in a 384-well low volume black round bottom plate and incubated at room temperature with constant shaking for 30 minutes. Time-resolved fluorescence was measured on a PerkinElmer Envision plate reader.
Three replicates were performed for each compound. Data were normalized by the following: (Positive control−Sample signal)/(Positive control−negative control)*100. The data were fit using a four-parameter logistic fit.

Molecule C[C@@H]1CN(C(=O)N2Cc3nc(Cl)nc(N[C@H](C)c4cc(N)cc(C(F)(F)F)c4)c3C2)C[C@H](C)O1 [Example 163] has a Kd [1] of less than 400 nM and an IC50 [2] of less than 1000 nM.

In the case of COC1(C(=O)N2Cc3nc(C(F)(F)CO)nc(N[C@H](C)c4cccc(C(F)F)c4F)c3C2)CCOCC1 [Example 487, (R)-(2-(1,1-difluoro-2-hydroxyethyl)-4-((1-(3-(difluoromethyl)-2-fluorophenyl)ethyl)amino)-5,7-dihydro-6H-pyrrolo[3,4-d]pyrimidin-6-yl)(4-methoxytetrahydro-2H-pyran-4-yl)methanone], the Kd [1] is reported as less than 400 nM and the IC50 [2] is reported as less than 1000 nM.

CC(=O)N1CC(F)(C(=O)N2Cc3nc(Cl)nc(N[C@H](C)c4cccc(C(F)F)c4F)c3C2)C1 [Example 347] showed a Kd [1] of less than 400 nM and an IC50 [2] of less than 1000 nM.

In the case of COc1cccc(C(=O)N2Cc3nc(Cl)nc(N[C@H](C)c4cc(N)cc(C(F)(F)F)c4)c3C2)n1 [Example 67], the Kd [1] is reported as greater than 400 nM and the IC50 [2] is reported as greater than 1000 nM.

Molecule C[C@@H](Nc1nc(Cl)nc2c1CN(C(=O)NC1CC[C@H](N)C1)C2)c1cc(N)cc(C(F)(F)F)c1 (stereo partly drawn) [Example 150] has a Kd [1] greater than 400 nM and an IC50 [2] of less than 1000 nM.

For C[C@@H](Nc1nc(Cl)nc2c1CN(C(=O)N1CCNc3ncccc31)C2)c1cccc(C(F)F)c1F [Example 425], the Kd [1] was less than 400 nM and the IC50 [2] was less than 1000 nM.

In the case of C[C@@H](Nc1nc(Cl)nc2c1CN(C(=O)N1CCNc3ncncc31)C2)c1cccc(C(F)F)c1F [Example 427], the Kd [1] is reported as less than 400 nM and the IC50 [2] is reported as less than 1000 nM.

With CNC(=O)N1Cc2nc(C)nc(N[C@H](C)c3cc(N)cc(C(F)(F)F)c3)c2C1 [Example 122, 4-{[(1R)-1-[3-amino-5-(trifluoromethyl)phenyl]ethyl]amino}-N,2-dimethyl-5H,6H,7H-pyrrolo[3,4-d]pyrimidine-6-carboxamide] the Kd [1] was greater than 400 nM and the IC50 [2] was greater than 1000 nM.

Work on COc1cncc(C(=O)N2Cc3nc(Cl)nc(N[C@H](C)c4cc(N)cc(C(F)(F)F)c4)c3C2)n1 [Example 69] yielded a Kd [1] greater than 400 nM and an IC50 [2] greater than 1000 nM.

In the case of COC[C@H]1CCCN1C(=O)N1Cc2nc(Cl)nc(N[C@H](C)c3cc(N)cc(C(F)(F)F)c3)c2C1 [Example 154], the Kd [1] is reported as less than 400 nM and the IC50 [2] is reported as less than 1000 nM.

C[C@@H](Nc1nc(Cl)nc2c1CN(C(=O)N1CCN(C)c3ncncc31)C2)c1cccc(C(F)F)c1F [Example 428] gave a Kd [1] of less than 400 nM and an IC50 [2] of less than 1000 nM.

With C[C@@H](Nc1nc(Cl)nc2c1CN(C(=O)c1cnccn1)C2)c1cc(N)cc(C(F)(F)F)c1 [Example 66] the Kd [1] was greater than 400 nM and the IC50 [2] was greater than 1000 nM.

In the case of C[C@@H](Nc1nc(Cl)nc2c1CN(C(=O)C1CC3CCC(C1)O3)C2)c1cc(N)cc(C(F)(F)F)c1 (stereo partly drawn) [Example 81], the Kd [1] is reported as less than 400 nM and the IC50 [2] is reported as less than 1000 nM.

Work on C[C@@H](Nc1nc(Cl)nc2c1CN(C(=O)N1CCOc3ccncc31)C2)c1cc(N)cc(C(F)(F)F)c1 [Example 141] yielded a Kd [1] of less than 400 nM and an IC50 [2] of less than 1000 nM.

Work on C[C@@H](Nc1nc(Cl)nc2c1CN(C(=O)c1ncc[nH]1)C2)c1cc(N)cc(C(F)(F)F)c1 [Example 95] yielded a Kd [1] greater than 400 nM and an IC50 [2] greater than 1000 nM.

Cc1nc2c(c(N[C@H](C)c3cc(N)cc(C(F)(F)F)c3)n1)CN(C(=O)N1CCOCC1)CCC2 [Example 136, N-[(1R)-1-[3-amino-5-(trifluoromethyl)phenyl]ethyl]-2-methyl-6-(morpholine-4-carbonyl)-5H,6H,-7H,8H,9H-pyrimido[5,4-c]azepin-4-amine] was tested, and the Kd [1] was greater than 400 nM and the IC50 [2] was greater than 1000 nM.

In the case of CC(Nc1nc(Cl)nc2c1CN(C(=O)N1CCOCC1)C2)c1cc(N)cc(C(F)(F)F)c1F (stereo not drawn) [Example 461, (4-((1-(5-amino-2-fluoro-3-(trifluoromethyl)phenyl)ethyl)amino)-2-chloro-5,7-dihydro-6H-pyrrolo[3,4-d]pyrimidin-6-yl)(morpholino)methanone], the Kd [1] is reported as less than 400 nM and the IC50 [2] is reported as less than 1000 nM.

Cc1cn2nnc(C(=O)N3Cc4nc(Cl)nc(N[C@H](C)c5cc(N)cc(C(F)(F)F)c5)c4C3)c2c(=O)[nH]1 [Example 103] gave a Kd [1] of less than 400 nM and an IC50 [2] greater than 1000 nM.

Work on C[C@@H](Nc1nc(Cl)nc2c1CN(C(=O)C1CCOCC1)C2)c1cc(N)cc(C(F)(F)F)c1 [Example 116, N-[(1R)-1-[3-amino-5-(trifluoromethyl)phenyl]ethyl]-2-chloro-6-(oxane-4-carbonyl)-5H,6H,7H-pyrrolo[3,4-d]pyrimidin-4-amine] yielded a Kd [1] of less than 400 nM and an IC50 [2] of less than 1000 nM.

C[C@@H](Nc1nc(Cl)nc2c1CN(C(=O)N1CCc3cccnc31)C2)c1cccc(C(F)(F)F)c1 [Example 369] gave a Kd [1] of less than 400 nM and an IC50 [2] of less than 1000 nM.

With C[C@@H](Nc1nc(Cl)nc2c1CN(S(=O)(=O)N1CCCC1)CC2)c1cc(N)cc(C(F)(F)F)c1 [Example 182] the Kd [1] was less than 400 nM and the IC50 [2] was less than 1000 nM.

In the case of CCOc1nc2c(c(N[C@H](C)c3cc(N)cc(C(F)(F)F)c3)n1)CN(C(=O)N1CCOCC1)C2 [Example 124, N-[(1R)-1-[3-amino-5-(trifluoromethyl)phenyl]ethyl]-2-ethoxy-6-(morpholine-4-carbonyl)-5H,6H,7H-pyrrolo[3,4-d]pyrimidin-4-amine], the Kd [1] is reported as less than 400 nM and the IC50 [2] is reported as less than 1000 nM.

C[C@@H](Nc1nc(Cl)nc2c1CN(C(=O)N1CCNC(=O)C1)C2)c1cc(N)cc(C(F)(F)F)c1 [Example 367] gave a Kd [1] of less than 400 nM and an IC50 [2] of less than 1000 nM.

Work on C[C@@H](Nc1nc(Cl)nc2c1CN(C(=O)c1nccnn1)C2)c1cc(N)cc(C(F)(F)F)c1 [Example 64] yielded a Kd [1] greater than 400 nM and an IC50 [2] greater than 1000 nM.

COc1cc(OC)nc(C(=O)N2Cc3nc(Cl)nc(N[C@H](C)c4cc(N)cc(C(F)(F)F)c4)c3C2)n1 [Example 63] showed a Kd [1] of less than 400 nM and an IC50 [2] greater than 1000 nM.

C[C@@H](Nc1nc(Cl)nc2c1CN(C(=O)c1cnn(C3CCOCC3)c1)C2)c1cc(N)cc(C(F)(F)F)c1 [Example 96] gave a Kd [1] of less than 400 nM and an IC50 [2] greater than 1000 nM.

C[C@@H](Nc1nc(Cl)nc2c1CN(C(=O)CN1CCOCC1)C2)c1cc(N)cc(C(F)(F)F)c1 [Example 89] gave a Kd [1] of less than 400 nM and an IC50 [2] of less than 1000 nM.

C[C@@H](Nc1nc(CF)nc2c1CN(C(=O)N1CCOCC1)C2)c1cccc(C(F)F)c1F [Example 540, N-[(1R)-1-[3-(difluoromethyl)-2-fluorophenyl]ethyl]-2-(fluoromethyl)-6-(morpholine-4-carbonyl)-5H,6H,7H-pyrrolo[3,4-d]pyrimidin-4-amine] gave a Kd [1] of less than 400 nM and an IC50 [2] of less than 1000 nM.

O=C(N1CCOCC1)N1Cc2nc(Cl)nc(N[C@H](CO)c3cccc(C(F)(F)F)c3)c2C1 [Example 174] was tested, and the Kd [1] was greater than 400 nM and the IC50 [2] was greater than 1000 nM.

Molecule COc1cccnc1C(=O)N1Cc2nc(Cl)nc(N[C@H](C)c3cc(N)cc(C(F)(F)F)c3)c2C1 [Example 74] has a Kd [1] of less than 400 nM and an IC50 [2] of less than 1000 nM.

With C[C@@H](Nc1nc(Cl)nc2c1CN(C(=O)C1CN(C)C1)C2)c1cc(N)cc(C(F)(F)F)c1 [Example 100] the Kd [1] was less than 400 nM and the IC50 [2] was less than 1000 nM.

Molecule C[C@@H]1CN(C(=O)N2Cc3nc(Cl)nc(N[C@H](C)c4cc(N)cc(C(F)(F)F)c4)c3C2)C[C@@H](C)N1 [Example 143] has a Kd [1] of less than 400 nM and an IC50 [2] of less than 1000 nM.

C[C@@H](Nc1nc(Cl)nc2c1CN(C(=O)c1csc(N3CCOCC3)n1)C2)c1cc(N)cc(C(F)(F)F)c1 [Example 85] showed a Kd [1] greater than 400 nM and an IC50 [2] greater than 1000 nM.

Molecule C[C@@H](Nc1nc(Cl)nc2c1CN(S(=O)(=O)N1CCN(C)CC1)C2)c1cc(N)cc(C(F)(F)F)c1 [Example 25] has a Kd [1] of less than 400 nM and an IC50 [2] of less than 1000 nM.

For C[C@@H](Nc1nc(Cl)nc2c1CN(C(=O)N1CCC(C)(O)CC1)C2)c1cc(N)cc(C(F)(F)F)c1 [Example 162], the Kd [1] was less than 400 nM and the IC50 [2] was less than 1000 nM.

C[C@@H](Nc1nc(Cl)nc2c1CN(C(=O)c1ccc(-n3ccnc3)cn1)C2)c1cc(N)cc(C(F)(F)F)c1 [Example 76] was tested, and the Kd [1] was greater than 400 nM and the IC50 [2] was greater than 1000 nM.

In the case of C[C@@H](Nc1nc(Cl)nc2c1CN(C(=O)N1CCC3(CC1)COC3)C2)c1cc(N)cc(C(F)(F)F)c1 [Example 159], the Kd [1] is reported as less than 400 nM and the IC50 [2] is reported as less than 1000 nM.

With C[C@@H](Nc1nc(Cl)nc2c1CN(C(=O)N1CCCC13CCOCC3)C2)c1cc(N)cc(C(F)(F)F)c1 [Example 139] the Kd [1] was less than 400 nM and the IC50 [2] was less than 1000 nM.

Cc1nc2c(c(N[C@H](C)c3cc(N)cc(C(F)(F)F)c3)n1)CN(c1ccc(Br)cn1)CC2 [Example 42, N-[(1R)-1-[3-amino-5-(trifluoromethyl)phenyl]ethyl]-6-(5-bromo-2-pyridyl)-2-methyl-7,8-dihydro-5H-pyrido[4,3-d]pyrimidin-4-amine] showed a Kd [1] greater than 400 nM and an IC50 [2] greater than 1000 nM.
